Experimental findings from patent US8853230B2, “Inhibitors of JAK” (Portola Pharmaceuticals, Inc., priority 2009, dated 2014) are described below.

SMILES strings stand for the structures. Some results are limits rather than exact numbers.

Broadly, the IC50 is the midpoint of a concentration-inhibition curve.

Holding throughout (assay type): biochemical
For one assay, the target named is T1, JAK2 (Homo sapiens, UniProt O60674).
T1 construct: 5 μl of catalytic domain recombinant Kinase enzyme+Tyr peptide substrate (Invitrogen, Calif.); purchased Invitrogen
Nature of the assay: Z'-LYTE kinase assay, JAK2 tyrosine phosphorylation activity. As to the method: (§1) JAK and TYK2 tyrosine phosphorylation activity is measured using the Z′-LYTE™ Technology developed by Invitrogen Corporation (Carlsbad, Calif.). For JAK1, JAK2 and JAK3 the Z′-LYTE™ Kinase Assay Kit-Tyr6 Peptide (part number PV4122) was used. For TYK2 the Z′-LYTE™ Kinase Assay Kit-Tyr6 Peptide (part number PV3192) was used. The Z′-LYTE™ biochemical assay employs a fluorescence resonance energy transfer (FRET) coupled-enzyme format and is based on the differential sensitivity of phosphorylated and non-phosphorylated peptides to proteolitic cleavage. The assay uses a synthetic peptide substrate that is labelled with a donor fluorophore (coumarin) and an acceptor fluorophore (fluorescein) that make up a FRET pair. In the primary reaction (the Kinase Reaction), the kinase transfers the γ-phosphate of ATP to a single tyrosine residue on the substrate, while the presence of a kinase inhibitor in the primary reaction suppresses phosphorylation. In the secondary reaction (the Development Reaction), a site-specific protease (the Development Reagent) is added. The development buffer quenches the Kinase Reaction, while the protease recognizes and cleaves non-phosphorylated Z′-LYTE™ peptide substrate. Cleavage disrupts FRET between the donor and acceptor fluorophores on the non-phosphoryleted substrate, while uncleaved, phosphorylated substrate maintains FRET.
(§2) To test the ability of candidate molecules to inhibit JAK tyrosine phosphorylation activity, molecules are reconstituted in 100% DMSO and serially diluted 1:10 in polypropylene v-bottom microtiter plates. The candidate molecules are then diluted 1:25 into kinase buffer and 2.5 μl transferred into duplicate wells of a 384 well low volume black microtiter assay plate (Corning, USA). The final DMSO concentration in the assay is 1%. The kinase reaction contains 2.5 μl of a candidate molecule, 5 μl of catalytic domain recombinant Kinase enzyme+Tyr peptide substrate (Invitrogen, Calif.) and 2.5 μl ATP (Invitrogen, Calif.). The kinase reaction is allowed to procede for 1 hour at room temperature. The protease reaction is initiated by the addition of 5 μl Development Reagent (Invitrogen, Calif.). After 1 hour incubation at room temperature the fluorescence is measured using a FlexStation plate reader (Molecular Devices, Sunnyvale, Calif.). The reader settings used are as follows: Fluorescence mode, endpoint, top read, excitation 400 nm, emission 445 nm and 520 nm, Auto Cutoff 435 nm and 515 nm, PMT sensitivity high, 6 reads per well. Inhibition of JAK activity is calculated as the percent phosphorylation of substrate in the presence of inhibitor compared to the percent phosphorylation of substrate in the absence of inhibitor. IC50's were derived using Xlfit 4.3 (IDBS, UK), 4 parameter logistic model 205: Y=(A+((B−A)/(1+((C/x)^D)))).

For another assay, the target named is T2, JAK1 (Homo sapiens, UniProt P23458).
T2 construct: 5 μl of catalytic domain recombinant Kinase enzyme+Tyr peptide substrate (Invitrogen, Calif.); purchased Invitrogen
As to the kind of experiment: Z'-LYTE kinase assay, JAK1 tyrosine phosphorylation activity. The conditions noted are these: read-out: JAK 1 IC50. As to the method:
as §1, §2

The next assay concerns the target T3, JAK3 (Homo sapiens, UniProt P52333).
T3 construct: 5 μl of catalytic domain recombinant Kinase enzyme+Tyr peptide substrate (Invitrogen, Calif.); purchased Invitrogen
As to the kind of experiment: Z'-LYTE kinase assay, JAK3 tyrosine phosphorylation activity. As to the method:
as §1, §2

T1 sequence (O60674 849-1124 limits assumed): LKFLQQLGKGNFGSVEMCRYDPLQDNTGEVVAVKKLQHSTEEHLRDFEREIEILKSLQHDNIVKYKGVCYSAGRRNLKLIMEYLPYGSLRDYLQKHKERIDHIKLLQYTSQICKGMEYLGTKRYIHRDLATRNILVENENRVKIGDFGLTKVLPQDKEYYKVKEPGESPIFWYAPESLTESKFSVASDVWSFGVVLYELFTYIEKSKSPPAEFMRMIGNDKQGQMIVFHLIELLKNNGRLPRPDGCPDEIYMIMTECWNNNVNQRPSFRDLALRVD
T3 sequence (P52333 822-1111 limits assumed): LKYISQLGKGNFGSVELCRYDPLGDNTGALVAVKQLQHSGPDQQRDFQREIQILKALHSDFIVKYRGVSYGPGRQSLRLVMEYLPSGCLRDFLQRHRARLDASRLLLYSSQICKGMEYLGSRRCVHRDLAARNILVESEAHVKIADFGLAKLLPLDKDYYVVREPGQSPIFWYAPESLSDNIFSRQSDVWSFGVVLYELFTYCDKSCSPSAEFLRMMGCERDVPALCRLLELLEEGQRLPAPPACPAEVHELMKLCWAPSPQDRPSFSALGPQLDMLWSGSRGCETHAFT
T2 sequence (P23458 875-1153 limits assumed): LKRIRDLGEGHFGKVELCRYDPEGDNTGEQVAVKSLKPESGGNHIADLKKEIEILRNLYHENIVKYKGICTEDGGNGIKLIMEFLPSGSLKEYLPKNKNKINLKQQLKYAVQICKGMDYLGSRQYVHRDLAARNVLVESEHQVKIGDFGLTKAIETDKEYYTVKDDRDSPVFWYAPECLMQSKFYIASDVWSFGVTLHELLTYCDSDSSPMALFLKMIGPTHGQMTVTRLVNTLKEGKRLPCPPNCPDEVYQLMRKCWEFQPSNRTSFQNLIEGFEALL

With `CNC(=O)c1cnc(Nc2cccc(NC(C)=O)c2)cc1NCc1ccccc1` [Example 339, 6-(3-acetamidophenylamino)-4-(benzylamino)-N-methylnicotinamide], the half-maximal inhibitory concentration (IC50) against JAK2, on JAK1 and at JAK3 was over 1000 nM each time.

The compound `CC(=O)Nc1cccc(Nc2ncc(C(N)=O)c(Nc3ccc(NC(=O)CC#N)cc3)n2)c1` [Example 301, 2-(3-acetamidophenylamino)-4-(4-(2-cyanoacetamido)-phenylamino)pyrimidine-5-carboxamide] had an IC50 on JAK3 of 1 to 10 nM.

As to `NC(=O)c1cnc(Nc2ccc(F)c(NC(=O)N3CCCC3)c2)cc1NCc1cccc(F)c1` [Example 307], the IC50 lay within 100 to 1000 nM at JAK2, 100 to 1000 nM at JAK1 and 10 to 100 nM at JAK3.

`NC(=O)c1cnc(Nc2ccc(F)c(NC(=O)N3CCC3)c2)cc1NCc1cccnc1` [Example 317, 6-(3-(azetidine-1-carboxamido)-4-fluorophenylamino)-4-(pyridin-3-ylmethylamino)nicotinamide]: the results for the IC50 at JAK2, at JAK1 and on JAK3 were over 1000 nM, over 1000 nM and 10 to 100 nM, respectively.

Regarding `CC(=O)Nc1cccc(Nc2cc(NCc3cccc(F)c3)c(C(N)=O)cn2)c1` [Example 310, 6-(3-acetamidophenylamino)-4-(3-fluorobenzylamino)nicotinamide], the figures for the IC50 against JAK2, at JAK1 and against JAK3 were 100 to 1000 nM, 100 to 1000 nM and 1 to 10 nM, respectively.

In turn, `NC(=O)c1cnc(Nc2ccc(F)c(NC(=O)N3CCC3)c2)nc1NCc1ccccc1F` [Example 290, 2-(3-(azetidine-1-carboxamido)-4-fluorophenylamino)-4-(2-fluorobenzylamino)pyrimidine-5-carboxamide] yielded an IC50 on JAK3 of 1 to 10 nM.

As to `NC(=O)c1cnc(Nc2cccc(NC(=O)N3CCCC3)c2)nc1NCC1CCCC1` [Example 281], the IC50 on JAK3 lay within 100 to 1000 nM.

Consider `NC(=O)c1cnc(Nc2cccc(NC(=O)N3CCOCC3)c2)cc1N[C@H](CO)c1ccccc1` [Example 314, (S)—N-(3-(5-carbamoyl-4-(2-hydroxy-1-phenylethylamino)pyridin-2-ylamino)phenyl)morpholine-4-carboxamide], for which the IC50 against JAK2 lay within 100 to 1000 nM; on JAK1 it was 100 to 1000 nM; on JAK3, 1 to 10 nM.

On to `NC(=O)c1cnc(Nc2cccc(NC(=O)Cc3cccnc3)c2)nc1NCc1ccccc1F` [Example 297, 4-(2-fluorobenzylamino)-2-(3-(2-(pyridin-3-yl)acetamido)-phenylamino)pyrimidine-5-carboxamide], for which, on JAK3, the IC50 is 1 to 10 nM.

Turning to `NC(=O)c1cnc(Nc2ccc(F)c(NC(=O)N3CCCC3)c2)cc1NCc1cccnc1` [Example 304, 6-(4-fluoro-3-(pyrrolidine-1-carboxamido)phenylamino)-4-(pyridin-3-ylmethylamino)nicotinamide], the IC50 at JAK2 is over 1000 nM; on JAK1, over 1000 nM; at JAK3, 10 to 100 nM.

Turning to `NC(=O)c1cnc(Nc2ccc(F)c(NC(=O)N3CCCC3)c2)cc1N[C@H](CO)c1ccccc1` [Example 313, (S)-6-(4-fluoro-3-(pyrrolidine-1-carboxamido)phenylamino)-4-(2-hydroxy-1-phenylethylamino)nicotinamide], the values for the IC50 on JAK2, at JAK1 and against JAK3 were over 1000 nM, over 1000 nM and 10 to 100 nM, respectively.

Regarding `NC(=O)c1cnc(Nc2ccc(F)c(NC(=O)N3CCC3)c2)cc1N[C@H](CO)c1ccccc1` [Example 311, (S)-6-(3-(azetidine-1-carboxamido)-4-fluorophenylamino)-4-(2-hydroxy-1-phenylethylamino)nicotinamide], the IC50 on JAK2 was 100 to 1000 nM; at JAK1, over 1000 nM; on JAK3, 1 to 10 nM.

Consider `CC(=O)Nc1cccc(Nc2cc(NCc3cccnc3)c(C(N)=O)cn2)c1` [Example 321, 6-(3-acetamidophenylamino)-4-(pyridin-3-ylmethylamino)nicotinamide], for which the IC50 is 100 to 1000 nM against JAK2, 100 to 1000 nM at JAK1 and 10 to 100 nM against JAK3.

Take `NC(=O)c1cnc(Nc2cccc(NC(=O)N3CCCC3)c2)cc1NCc1cc(F)cc(F)c1` [Example 341, 4-(3,5-difluorobenzylamino)-6-(3-(pyrrolidine-1-carboxamido)phenylamino)nicotinamide]: the IC50 at JAK2 was 100 to 1000 nM; at JAK1, over 1000 nM; on JAK3 it was 1 to 10 nM.

Turning to `NC(=O)c1cnc(Nc2cccc(NC(=O)Cc3ccncc3)c2)nc1NCc1ccccc1F` [Example 299, 4-(2-fluorobenzylamino)-2-(3-(2-(pyridin-4-yl)acetamido)-phenylamino)pyrimidine-5-carboxamide], on JAK3, the IC50 is under 1 nM.

The compound `CC(=O)Nc1cccc(Nc2ncc(C(N)=O)c(NCC3CCCC3)n2)c1` [Example 280, 2-(3-acetamidophenylamino)-4-(cyclopentylmethylamino)pyrimidine-5-carboxamide] displayed an IC50 on JAK3 of under 1 nM.

`NC(=O)c1cnc(Nc2cccc(NC(=O)Cc3ccccn3)c2)nc1NCc1ccccc1F` [Example 300, 4-(2-fluorobenzylamino)-2-(3-(2-(pyridin-2-yl)acetamido)-phenylamino)pyrimidine-5-carboxamide] gave an IC50 against JAK3 of under 1 nM.

In turn, `NC(=O)c1cnc(Nc2cccc(NC(=O)c3ccccn3)c2)nc1NCc1ccccc1F` [Example 295, 4-(2-fluorobenzylamino)-2-(3-(picolinamido)-phenylamino)pyrimidine-5-carboxamide] displayed an IC50 on JAK3 of 10 to 100 nM.

Compound `CC(=O)Nc1cccc(Nc2ncc(C(N)=O)c(Nc3ccc(NC(=O)C4(C#N)CC4)cc3)n2)c1` [Example 302, 2-(3-acetamidophenylamino)-4-(4-(1-cyanocyclopropane-carboxamido)phenylamino)pyrimidine-5-carboxamide] displayed an IC50 against JAK3 of 10 to 100 nM.

For `NC(=O)c1cnc(Nc2cccc(NC(=O)N3CC[C@@H](F)C3)c2)nc1NCc1ccccc1F` [Example 289, (R)-4-(2-fluorobenzylamino)-2-(3-(3-fluoropyrrolidine-1-carboxamido)phenylamino)pyrimidine-5-carboxamide], the IC50 at JAK3 fell in the range of 10 to 100 nM.

For the compound `NC(=O)c1cnc(Nc2cccc(NC(=O)c3cccnc3)c2)nc1NCc1ccccc1F` [Example 296, 4-(2-fluorobenzylamino)-2-(3-(nicotinamido)-phenylamino)pyrimidine-5-carboxamide], the IC50 on JAK3 is under 1 nM.

`NC(=O)c1cnc(Nc2cccc(NC(=O)c3cccc(O)n3)c2)nc1NCc1ccccc1F` [Example 298, 4-(2-fluorobenzylamino)-2-(3-(6-hydroxypicolinamido)-phenylamino)pyrimidine-5-carboxamide] registered an IC50 at JAK3 of 1 to 10 nM.

On to `NC(=O)c1cnc(Nc2ccc(F)c(NC(=O)N3CCCC3)c2)nc1NCc1ccccc1F` [Example 288, 2-(4-fluoro-3-(pyrrolidine-1-carboxamido)phenylamino)-4-(2-fluorobenzylamino)pyrimidine-5-carboxamide], for which the IC50 at JAK3 fell in the range of 1 to 10 nM.

`NC(=O)c1cnc(Nc2cccc(NC(=O)N3CC[C@H](F)C3)c2)nc1NCc1ccccc1` [Example 284, (S)-4-(benzylamino)-2-(3-(3-fluoropyrrolidine-1-carboxamido)phenylamino)pyrimidine-5-carboxamide] yielded an IC50 against JAK3 of under 1 nM.

`NC(=O)c1cnc(Nc2cccc(NC(=O)N3CC[C@@H](O)C3)c2)nc1NCc1ccccc1` [Example 282, (R)-4-(benzylamino)-2-(3-(3-hydroxypyrrolidine-1-carboxamido)phenylamino)pyrimidine-5-carboxamide] had a half-inhibitory concentration (IC50) against JAK3 of under 1 nM.

In turn, `CC(=O)Nc1cccc(Nc2ncc(C(N)=O)c(Nc3ccc(NC(=O)CC(F)(F)F)cc3)n2)c1` [Example 303, 2-(3-acetamidophenylamino)-4-(4-(3,3,3-trifluoro-propanamido)phenylamino)pyrimidine-5-carboxamide] returned an IC50 on JAK3 of 10 to 100 nM.

With `NC(=O)c1cnc(Nc2cccc(NC(=O)N3CC[C@@H](F)C3)c2)nc1NCc1ccccc1` [Example 283, (R)-4-(benzylamino)-2-(3-(3-fluoropyrrolidine-1-carboxamido)phenylamino)pyrimidine-5-carboxamide], the IC50 on JAK3 is under 1 nM.
